Assay results: patent US6774086B2, “3-Aminocarbonyl-substituted benzoylcyclohexanediones” (Bayer CropScience GmbH, priority 2001, dated 2004)

How the values were obtained:
Type in all cases: in vivo
Amaranthus retroflexus [1] = test: pre-emergence herbicidal action; conditions: 320 g a.i./ha, scored visually after 3 to 4 weeks vs untreated controls
Source text: (§1) Seeds of mono- and dicotyledonous harmful plants are placed in sandy loam in cardboard pots and covered with soil. The compounds according to the invention, which are formulated in the form of wettable powders or emulsion concentrates, are then applied to the surface of the soil cover as aqueous suspension or emulsion at a dosage rate stated in table B1 with an application rate of 600 to 800 l of water per ha (converted). After the treatment, the pots are placed into a greenhouse and kept under good growth conditions for the harmful plants. The damage to the plants or their emergence is scored visually after the test plants have emerged after an experimental time of 3 to 4 weeks by comparison with untreated controls.

Stellaria media [2] = test: pre-emergence herbicidal action; conditions: 320 g a.i./ha, scored visually after 3 to 4 weeks vs untreated controls
Source text: as §1

Sinapis arvensis [3] = test: pre-emergence herbicidal action; conditions: 320 g a.i./ha, scored visually after 3 to 4 weeks vs untreated controls
Source text: as §1

Monochoria vaginalis = test: post-emergence action against harmful plants
Description: (§2) Seeds of mono- and dicotyledonous harmful plants are placed in sandy loam in cardboard pots, covered with soil and grown in the greenhouse under good growth conditions. 2 to 3 weeks after sowing, the test plants are treated in the three-leaf stage. The compounds according to the invention, which are formulated as wettable powders or as emulsion concentrates, are sprayed at a dosage rate stated in table B2 to the surface of the green plant parts at an application rate of 600 to 800 l of water per ha (converted). After the test plants have been left to stand in the greenhouse for approx. 3 to 4 weeks under optimal growth conditions, the effect of the compounds is scored by comparison with compounds of the prior art.
(§3) In further greenhouse experiments, seeds of barley and of monocotyledonous and dicotyledonous harmful plants are placed in sandy loam, covered with soil and placed in the greenhouse until the plants have developed two to three true leaves. Then, they are treated with the compounds of the formula (I) according to the invention as described above under item 2.

Sagittaria pygmaea = test: post-emergence action against harmful plants
Description: as §2, §3

Cyperus serotinus = test: post-emergence action against harmful plants
Description: as §2, §3

Oryza sativa = test: post-emergence action, crop plant damage
Amaranthus retroflexus [4] = test: post-emergence herbicidal action; conditions: three-leaf stage, 320 g a.i./ha, scored after approx. 3 to 4 weeks
Description: as §2

Stellaria media [5] = test: post-emergence herbicidal action; conditions: three-leaf stage, 320 g a.i./ha, scored after approx. 3 to 4 weeks
Description: as §2

Sinapis arvensis [6] = test: post-emergence herbicidal action; conditions: three-leaf stage, 320 g a.i./ha, scored after approx. 3 to 4 weeks
Description: as §2

Compound	Action against harmful plants AMARE (Amaranthus retroflexus [1])	Action against harmful plants STEME (Stellaria media [2])	Action against harmful plants SINAL (Sinapis arvensis [3])	Action against harmful plants MOOVA (Monochoria vaginalis; 50 g a.i./ha)	Action against harmful plants SAGPY (Sagittaria pygmaea; 50 g a.i./ha)	Action against harmful plants CYPSE (Cyperus serotinus; 50 g a.i./ha)	Crop plant damage ORYSP (Oryza sativa; 50 g a.i./ha)	Action against harmful plants AMARE (Amaranthus retroflexus [4])	Action against harmful plants STEME (Stellaria media [5])	Action against harmful plants SINAL (Sinapis arvensis [6])	Action against harmful plants MOOVA (Monochoria vaginalis; 90 g a.i./ha)	Action against harmful plants SAGPY (Sagittaria pygmaea; 90 g a.i./ha)	Action against harmful plants CYPSE (Cyperus serotinus; 90 g a.i./ha)	Crop plant damage ORYSP (Oryza sativa; 90 g a.i./ha)
CN(C(=O)COc1c(S(C)(=O)=O)ccc(C(=O)C2=C(O)CCCC2=O)c1Cl)c1ccccc1 [Compound 1.28]	90%	90%	90%	–	–	–	–	–	–	–	–	–	–	–
CCN(CC)C(=O)COc1c(Br)ccc(C(=O)C2=C(O)CCCC2=O)c1Br [Compound 3.65]	90%	90%	80%	99%	80%	99%	0%	80%	100%	90%	–	–	–	–
CCN(CC)C(=O)COc1c(Cl)ccc(C(=O)C2=C(O)CCCC2=O)c1Cl [Compound 3.9]	90%	90%	80%	–	–	–	–	80%	100%	90%	95%	90%	95%	0%
